# From US8187573B2, “In vivo detection of apoptosis” (priority 2005, dated 2012)
# Entries after “also recorded” stand apart in the source; their conditions may differ.
# Experiments:
# [1] = test system: Spleen, Liver, Thymus, and CNS tissues; assay: In vivo detection of morphine-mediated apoptosis: apoptosis positive cell counts in tissue sections after IV FAM-VAD-FMK; conditions: bone marrow and liver tissues (conclusion)
# Protocol: Spleen, Liver, Thymus, and CNS tissues were isolated from different treatment groups, frozen and mounted on glass slides. The various cell types were adjusted to 1×10^6 cells/mL and cytospun on a glass slide for analysis by fluorescence microscopy. Sections were photographed and analyzed by MetaMorph analysis program for apoptosis positive cell counts. Counts were analyzed by statistics software.
# Spleen, Liver, Thymus, and CNS tissues were isolated from different treatment groups, frozen and mounted on glass slides. Sections were photographed and analyzed by MetaMorph analysis program for apoptosis positive cell counts. Counts were analyzed by statistics software.
# [2] = test system: FSaII murine fibrosarcoma tumors; assay: Longitudinal apoptosis imaging of FSaII tumor in dorsal skin flap chamber (DSFC) with FAM-VAD-FMK; assay type: in vivo, nu/nu mice
# Protocol: A longitudinal study was performed in nu/nu mice to assess the efficacy of arsenic trioxide (ATO) on FSaII murine fibrosarcoma tumors before and after ATO treatment through a window chamber.
# Dorsal skin flap chambers (DSFC) were surgically implanted into the backs of nu/nu mice as follows. Entire implantation procedure was conducted within a laminar flow hood to preserve a sterile field. Skin was washed twice with betadine and allowed to dry. One sterilized chamber piece containing a round window (9 mm) was placed on one side of the dorsal skin fold. Holes for three connecting screws were made through the skin fold connecting with another chamber piece with a similar window. The assembly was then tightened together with screws and nuts through the chamber piece spacers. A circle of cutaneous tissue and fascia was carefully cut away from the skin fold inside the DSFC window, exposing the blood vessels of the subcutaneous tissue adjacent to the striated muscles of the opposing skin fold. Antibiotic ointment (bacitracin zinc/polymyxin B sulfate/neomycin sulfate) was used on the edges of the wound inside the DSFC window. A glass window was placed in the chamber to cover the exposed tissue and secured with a snap C-ring. The surgical wound procedure was then repeated in the opposite DSFC window so that a very thin, transparent layer of fascia and vessels remained visible through both windows (created to facilitate microscope light transmission through the tissue). Finally, the chamber was sutured to the skin.
# After surgery, the animals were housed in barrier cages inside a humidified incubator maintained at 32° C. with unrestricted access to food and water. To minimize risk of infection, all mice were given amoxicillin in their drinking water (250 mg per 5 mL water) after DSFC implantation and throughout the experiment.
# Tumor cells were implanted into one side of the chamber by temporary removal of the C-ring and glass cover slip. […]
# [3] = test system: SCK mammary tumors; assay: SCK mammary tumor window chamber model, bright-field imaging of hemorrhaging; assay type: in vivo, A/J mice; conditions: 8.0 mg/kg ATO
# Protocol: (§1) Using a mouse window chamber model, SCK mammary tumors were evaluated for levels of apoptosis induction in tumors following irradiation treatment with arsenic trioxide (ATO) and heat. A window chamber, used for viewing tumors, was placed over a fold of skin in A/J mice. 2×10^5 SCK mammary carcinoma cells were injected into the skin fold. The tumors were allowed to grow for 7 to 9 days. In the test mice, tumors were irradiated with 20 Gy, 8 mg/kg ATO and 2 hours later the tumors were heated at 41.5° C. for 60 minutes. Control mice were not treated with irradiation or heat and a placebo was injected instead of ATO.
# (§2) After allowing the tumors to grow 7 days, the test mice were first irradiated with 20 Gy. This was immediately followed by an intraperitoneal (I.P.) injection of ATO. The ATO was dissolved in water and injected in a solution of PBS with 5% w/v of dextrose at a concentration of 8 mg/kg. After 2 hours the tumors were heated at 41.5° C. for 60 minutes. Control mice received an I.P. injection of PBS with 5% dextrose.
# Prior to treatment, tumors were examined in control mice and designated test mice. Low magnification bright-field image composite photographs of SCK mammary tumors taken through a window chamber reveal a low level of hemorrhaging in all tumors (FIG. 1). […]
# [4] = test system: SCK tumor cells; assay: Flow cytometry of cells from SCK tumors after in vivo FAM-VAD-FMK labelling; set-up: species or system mouse; conditions: 8.0 mg/kg ATO
# Protocol: In another set of mice, the tumors were allowed to grow for 7 days. Control mice received placebo injections as before and test mice received ATO injections as before. After 24 hours all mice received I.V. injections of FAM-VAD-FMK as before. The in vivo apoptosis detection and imaging reagent was allowed to circulate through each mouse for 30 minutes. After imaging tumor-associated apoptosis in vivo, tumor tissue was collected from the window chamber by scraping the tumor out of the chamber into a trypsin solution, stirring for 30 minutes with 10 μg/ml DNase and 5 μg/ml collagenase, filtering the suspension using a […] cell strainer. Flow cytometry was then performed using a FACS Caliber flow cytometer (Becton Dickinson Immunocytometry System, San Jose, Calif.) for the analysis of apoptosis in the cell population obtained from the window chamber. All data was acquired with an event acquisition set for 10,000 events. Data was analyzed using CellQuest Pro cytometer software.
# [5] = test system: SCK mammary tumors; assay: SCK mammary tumor window chamber model, in vivo apoptosis imaging with FAM-VAD-FMK (488 nm, FITC filter); set-up: species or system A/J mice; conditions: 8.0 mg/kg ATO, 8 μg FAM-VAD-FMK IV, 30 min circulation
# Protocol: as §1, §2
# Apoptosis was detected by injecting the in vivo apoptosis detection reagent FAM-VAD-FMK into the tail vein of control and test mice. […]
# Control mice were given FAM-VAD-FMK injections following placebo injections. […] Test mice that received ATO treatment were given FAM-VAD-FMK injections at 3 hours and 24 hours after ATO treatment, and apoptosis was evaluated as before. […]
molecule,measurement,setting,value
"CN1CC[C@]23c4c5ccc(O)c4O[C@H]2[C@@H](O)C=C[C@H]3[C@H]1C5 [Morphine, morphine]",enhancement of apoptosis of LPS activated cells,[1],enhanced apoptosis of LPS activated cells
arsenic trioxide [ATO],"level of apoptosis in tumor (fluorescence, 10×)","[2]; 8.0 mg/kg ATO IP, 3 hours post ATO, 12.0 μg FAM-VAD-FMK IV, 45 min, same tumor before vs after",significant level of apoptosis; also recorded: increase in apoptosis within the tumor is clear
same,level of hemorrhaging in tumor,"[3]; 3 hours after completion of treatment, vs placebo control",Increased levels of hemorrhaging
same,level of hemorrhaging in tumor,"[3]; 24 hours after completion of treatment, vs 3 hour photograph",amount of hemorrhaging has also increased over time
same,apoptotic cells (apoptosis induction rate),"[4]; 24 hours after treatment, flow cytometry, 10,000 events, control mouse 18%",39%
same,increase in apoptosis versus control mouse,"[4]; 24 hours, flow cytometry",two-fold increase
same,level of apoptosis in tumor (fluorescence),[5]; 3 hours post ATO,substantial increase in the level of apoptosis; also recorded: high level of apoptosis
same,level of apoptosis in tumor (fluorescence),[5]; 24 hours post ATO,even higher; also recorded: higher level of apoptosis
carboxyfluorescein-valanyl-alanyl-aspartyl(O-methyl)-fluoromethyl ketone [FAM-VAD-FMK],in vivo detection of apoptosis in living tissue,[2]; IV injection,works for the in vivo detection of apoptosis
same,side-effects of the reagent in longitudinal studies,"[2]; IV injection, repeated in the same animal",no side-effects
